Calls of active or inactive are those of the source. The rule behind the calls is not given here.
Columns and labels:
[1] = target: T1, Cyclin-dependent kinase 2 (Homo sapiens, UniProt P24941); assay: Binding affinity to full-length human CDK2 expressed in Escherichia coli BL21 (DE3) pLysS cells at 1 to 5 mM by isothermal titration calorimetry
[2] = target: T1, Cyclin-dependent kinase 2; assay: Binding affinity to full-length human CDK2 expressed in Escherichia coli BL21 (DE3) pLysS cells by isothermal titration calorimetry
[3] = target: T1, Cyclin-dependent kinase 2; assay: Binding affinity to full-length human CDK2 expressed in Escherichia coli BL21 (DE3) pLysS cells at 5 mM by isothermal titration calorimetry

| Kd [2] | Activity [3] | SMILES | further results |
| --- | --- | --- | --- |
| – | – | Nc1nc(Oc2cccc(CC(=O)O)c2)c2nc[nH]c2n1 | Activity [1]: inactive |
| 50 µM | – | Nc1nc(-c2cccc(CC(=O)O)c2)c2nc[nH]c2n1 | Activity [2]: Dose-dependent effect |
| 350 µM | – | Nc1nc(I)c2nc[nH]c2n1 | – |
| – | inactive | NS(=O)(=O)c1ccc(Br)cc1 | – |
| – | inactive | Brc1cn[nH]c1 | – |

From ChEMBL document CHEMBL4390671, “FragLites-Minimal, Halogenated Fragments Displaying Pharmacophore Doublets. An Efficient Approach to Druggability Assessment and Hit Generation” (J Med Chem, 2019)
